Source: publication PMC12693135, “Ocular Toxicity and Mechanistic Investigation for Berberine and Its Metabolite Berberrubine on Zebrafish” (Molecules, 2025)

Tests used:
[1] = tested on: transgenic mitochondrial fluorescent zebrafish (strain Tg(Xla.Eef1a1:mlsEGFP)); assay: Fluorescence microscopy for mitochondrial function; assay type: in vivo, zebrafish (Danio rerio); details: 5-dpf larvae; BBR 25 or 50 μM, M1 100 or 200 μM
Experimental: Strain Tg(Xla.Eef1a1:mlsEGFP) zebrafish larvae (6 hpf) were treated with BBR (25 or 50 μM), M1 (100 or 200 μM), or 0.05% DMSO (control) until 5 dpf, with 30 larvae per treatment and three biological replicates (total 90 larvae per group). Then, 10 larvae were randomly selected from each experimental group and imaged using a motorized-focus continuous-zoom fluorescence microscope AZ100 (Nikon, Japan) with the magnification of 10–40× and exposure time of 200–500 ms. The fluorescence intensity of ocular apoptotic cells in zebrafish larvae and mitochondria throughout the zebrafish were measured and analyzed using NIS-Elements (Nikon Imaging Software, Nikon, Japan). The experiment was conducted three times in parallel.

zebrafish larvae eye = assay: Zebrafish eye length and area experiment; assay type: in vivo, zebrafish (Danio rerio); details: zebrafish larvae at 5 dpf vs 0.05% DMSO control; BBR 20-200 µM, M1 20-625 µM
Experimental: Half of the epiboly embryos (6 hpf under standard conditions) were exposed to solutions (2 mL) of BBR at the concentrations of 20, 50, 100, and 200 µM or M1 at the concentrations of 20, 50, 100, 200, 400, and 625 µM and cultured under standard conditions, taking 0.05% DMSO in saline as the control. The experiment was performed three times using 30 embryos per concentration (n = 90 per group in total). At 5 dpf, embryos were washed 3× with normal medium, transferred to fresh medium, and photographed by E3ISPM20000KPA digital camera (ToupTek, Hangzhou, China), with the magnification of 10–40× and exposure time of 200–500 ms. Then the eye length and area were measured and analyzed using Image J V2.1.X (NIH, Bethesda, MD, USA). Data (eye length/area) were expressed as mean ± SD, compared with the control group, and plotted.

[2] = tested on: wild-type AB strain zebrafish larvae; assay: Zebrafish visual motor response (locomotor behavior, dark/light); assay type: in vivo, zebrafish (Danio rerio); details: for swimming pattern (trajectories) upon light stimulation: first 30 s of light stimulation, compared to controls
Experimental: Wild-type larvae (6 hpf, 30 per group) were incubated with BBR at the concentrations of 20, 50, 100, and 200 µM or M1 at the concentrations of 20, 50, 100, 200, 400, and 625 µM for 5 days. At 120 hpf, larvae were tested in a 96-well plate (1 larva/well, 12 per group). After 10 min acclimation, light-dark transition tests were performed (5 min dark to 5 min light, repeated 3 times), with recordings every 1 min for 40 min. The trajectory and 1 min movement distance were recorded by Behavioral Tracking System: Daniovision, Zebralab 3.3 (ViewPoint, Civrieux, France). Data were processed in Excel (Microsoft, Redmond, WA, USA). Metrics included 1 min total distance, movement time, and average speed. Averages of 12 larvae per group were used for bar graphs; comparisons with the control group were analyzed via t-test. The experiment was conducted three times in parallel.

[3] = tested on: wild-type AB strain zebrafish; assay: qPCR gene expression in zebrafish larvae; assay type: in vivo, zebrafish (Danio rerio); details: BBR 25 or 50 μM, M1 100 or 200 μM
Experimental: Wild-type AB strain zebrafish (6 hpf) were treated with BBR (25 or 50 μM), M1 (100 or 200 μM), or 0.05% DMSO (control) until 5 dpf, with 30 larvae per treatment and three biological replicates (total 90 larvae per group). A total of 30 larvae were pooled per sample (3 samples per group), collected, and homogenized. Total RNA was isolated using a commercial RNA extraction kit following the manufacturer’s protocol. The concentration and purity of the extracted RNA were determined by measuring the absorbance at 260 nm and 280 nm using a NanoDrop 2000 ultraviolet-visible spectrophotometer (Thermo, Waltham, MA, USA). A total of 1 µg of RNA from each sample was reverse-transcribed into complementary DNA (cDNA) using a PrimeScript RT reagent kit (Takara Bio Inc., Dalian, China). The reverse transcription reaction was performed in a T100 Thermal Cycler (BIO-RAD, Singapore) under the following conditions: 37 °C for 15 min, followed by 85 °C for 5 s.
The qPCR reactions were carried out to quantify the relative expression levels of target genes, including photoreceptor-related genes (rho and opn1sw), mitochondrial dynamics genes (mfn2 and drp1), autophagy markers (lc3b and p62), apoptosis-related genes (baxa, bcl2a, caspase9, caspase3, and caspase7), and inflammation-related genes (il1b and il6), on a CFX Connect quantitative real-time PCR instrument (BIO-RAD, Singapore). The experiment was performed according to the manufacturer’s instruction. β-actin served as the internal reference, and the experiment was repeated in triplicate.

[4] = Zebrafish embryonic developmental toxicity (mortality, LC50); parameters: species or system zebrafish (Danio rerio); details: wild-type AB, in vivo, exposure from 6 hpf, mortality at 5 dpf, read-out: LC50 (half-lethal concentration)
Experimental: First, the half-lethal concentration (LC50) values of berberine (BBR) and berberrubine (M1) in zebrafish were calculated. Wild-type AB strain zebrafish embryos staged at 6 h post-fertilization (hpf), corresponding to the 50% epiboly stage, were exposed to BBR or M1 at different concentrations. Mortality was recorded via stereomicroscopy at 5 days post-fertilization (5 dpf).
Embryos at 6 hpf (50% epiboly stage) were grouped and exposed to incubation solutions of berberine (BBR) at concentrations of 20, 50, 100, 200, and 400 µM, or M1 at concentrations of 20, 50, 100, 200, 400, and 625 µM, until 5 dpf. The control group was treated with 0.05% DMSO in saline. All experiments were performed in three biological replicates; unless otherwise specified, each replicate included 30 larvae per treatment, resulting in a total of 90 larvae per treatment.
Wild-typed AB strain zebrafish embryos at the 6 h post-fertilization stage (6 hpf) were grouped (30 fishes per group), and BBR at the concentrations of 20, 50, 100 and 200 µM or M1 at the concentrations of 20, 50, 100, 200, 400 and 625 µM were administered by microinjection, taking 0.05% DMSO in saline as the control. The mortality was recorded everyday by SZX2 stereomicroscopy (Olympus, Hachioji-shi, Japan) until 5 dpf. Dead embryos were recorded and discarded every 24 h. […]

[5] = tested on: wild-type AB strain zebrafish ocular cells; assay: Fluorescence microscopy for ocular cell apoptosis (acridine orange); assay type: in vivo, zebrafish (Danio rerio); details: for fluorescence intensity of apoptotic ocular cells (ratio to eye area): control 0.19
Experimental: To investigate the underlying mechanism of ocular toxicity, we evaluated the proapoptotic effects of BBR and M1 on wild-type AB strain zebrafish ocular cells. Zebrafish embryos at 6 hpf were water-soluble administration with BBR (25 or 50 μM) or M1 (100 or 200 μM), and the fluorescence intensity of apoptotic ocular cells was measured at 5 dpf using confocal fluorescence microscopy (Figure 4A). […] Specifically, the fluorescence intensity (a marker of apoptotic cell abundance) was increased from 0.19 to 0.28 and 0.32 upon the treatments of 25 μM BBR and 50 μM BBR, respectively.
A total of 30 wild-type AB strain zebrafish at 6 hpf were treated with BBR at 25 or 50 μM, M1 at 100 or 200 μM, or 0.05% DMSO (control), respectively, […], with 30 larvae per treatment and three biological replicates (total 90 larvae per group). The zebrafish larvae were then stained with acridine orange. After staining, 10 larvae were randomly selected from each experimental group and imaged using a motorized-focus continuous-zoom fluorescence microscope AZ100 (Nikon, Shinagawa-ku, Japan) with the magnification of 10–40× and exposure time of 200–500 ms. The fluorescence intensity of ocular apoptotic cells and mitochondria in zebrafish larvae was measured and analyzed using NIS-Elements 6.10 (Nikon Imaging Software, Nikon, Japan).

In the case of `COc1ccc2cc3[n+](cc2c1O)CCc1cc2c(cc1-3)OCO2` [M1, berberrubine], the mitochondrial density [1] is reported as “decrease in the mitochondrial density”, the “eye length and eye area” value (zebrafish larvae eye) is reported as “significantly and dose-dependently reduced” and the average swimming distance ([2]; 625 μM) is reported as “reduced average swimming distance”. The swimming duration ([2]; concentrations above 200 μM) was “decreased swimming duration”, the “locomotion in the dark” value ([2]; dark, 20-625 µM) was “did not affect locomotion in the dark” and the “swimming pattern (trajectories) upon light stimulation” value [2] was “irregular and disorganized swimming patterns”. The bcl2a expression [3] was “dose-dependently reduced bcl2a expression”, the “expression of baxa, caspase9, caspase3 and caspase7” value [3] was “increasing the expression of baxa, caspase9, caspase3 and caspase7” and the “expression of drp1” value [3] was “increasing that of drp1 in a concentration-dependent manner”. For the same compound, the “expression of lc3b” value [3] was “decreasing the expression of lc3b”, the “expression of mfn2” value [3] was “decreased the expression of mfn2 dose-dependently” and the “expression of rho and opn1sw genes” value [3] was “reduced the expression of these two genes in a dose-dependent manner”. The p62 levels [3] was “elevation in p62 levels”, the “transcription of il1β and il6” value [3] was “promoted the transcription of proinflammatory cytokine genes il1β and il6” and the LC50 [4] was 558 µM. For the same compound, the “apoptosis in ocular cells” value ([5]; 200 μM compared with 100 μM) was “significant increase in apoptosis”.

With `COc1ccc2cc3[n+](cc2c1OC)CCc1cc2c(cc1-3)OCO2` [BBR, berberine] the mitochondrial density [1] was “decrease in the mitochondrial density”, the “eye length and eye area” value (zebrafish larvae eye) was “significantly and dose-dependently reduced” and the “average swimming speed, dark conditions” value ([2]; dark, 200 μM) was “decreased average speed”. The “swimming distance and duration, dark conditions” value ([2]; dark, concentrations above 100 μM) was “significantly reduced”, the “swimming pattern (trajectories) upon light stimulation” value [2] was “irregular and disorganized swimming patterns” and the “locomotor metrics (distance, time, speed) upon light stimulation” value ([2]; light stimulation, 200 μM) was “significant reductions in all three locomotor metrics”. The bcl2a expression [3] was “dose-dependently reduced bcl2a expression”, the “expression of baxa, caspase9, caspase3 and caspase7” value [3] was “increasing the expression of baxa, caspase9, caspase3 and caspase7” and the “expression of drp1” value [3] was “increasing that of drp1 in a concentration-dependent manner”. The “expression of lc3b” value [3] was “decreasing the expression of lc3b”, the “expression of mfn2” value [3] was “decreased the expression of mfn2 dose-dependently” and the “expression of rho and opn1sw genes” value [3] was “reduced the expression of these two genes in a dose-dependent manner”. For the same compound, the p62 levels [3] was “elevation in p62 levels”, the “transcription of il1β and il6” value [3] was “promoted the transcription of proinflammatory cytokine genes il1β and il6” and the LC50 [4] was 167 µM. For the same compound, the “fluorescence intensity of apoptotic ocular cells (ratio to eye area)” value ([5]; 25 μM) was 0.28 and the “fluorescence intensity of apoptotic ocular cells (ratio to eye area)” value ([5]; 50 μM) was 0.32.
